Source: ChEMBL document CHEMBL1147845, “Rapid synthesis of sulfone derivatives as potential anti-infectious agents” (2007)
In brackets after ≈: the same amount, converted by molar mass. Activity calls are given as the source filed them. No cut-off for these calls is given here.

How the values were obtained:
Staphylococcus aureus [1] = test: Antimicrobial activity against Staphylococcus aureus ATCC 6538 by broth microdilution method; type: functional
Candida tropicalis [2] = test: Antimicrobial activity against Candida tropicalis IP 2031 by broth microdilution method; type: functional
Escherichia coli [3] = test: Antimicrobial activity against Escherichia coli ATCC 10536 at 30 ug by disk diffusion method; type: functional; settings: read-out: IZ
Pseudomonas aeruginosa [4] = test: Antimicrobial activity against Pseudomonas aeruginosa ATCC 15442 at 30 ug by disk diffusion method; type: functional, organism-based
Staphylococcus aureus [5] = test: Antimicrobial activity against Staphylococcus aureus ATCC 6538 at 30 ug by disk diffusion method; type: functional, organism-based
Enterococcus hirae [6] = test: Antimicrobial activity against Enterococcus hirae ATCC 10541 at 30 ug by disk diffusion method; type: functional, organism-based
Candida albicans [7] = test: Antimicrobial activity against Candida albicans ATCC 90029 at 30 ug by disk diffusion method; type: functional, organism-based
Candida tropicalis [8] = test: Antimicrobial activity against Candida tropicalis IP 2031 at 30 ug by disk diffusion method; type: functional, organism-based
Escherichia coli [9] = test: Antimicrobial activity against Escherichia coli ATCC 10536 at 10 ug by disk diffusion method; type: functional, organism-based
Pseudomonas aeruginosa [10] = test: Antimicrobial activity against Pseudomonas aeruginosa ATCC 15442 at 10 ug by disk diffusion method; type: functional, organism-based
Staphylococcus aureus [11] = test: Antimicrobial activity against Staphylococcus aureus ATCC 6538 at 10 ug by disk diffusion method; type: functional; settings: read-out: IZ
Enterococcus hirae [12] = test: Antimicrobial activity against Enterococcus hirae ATCC 10541 at 10 ug by disk diffusion method; type: functional, organism-based
Candida albicans [13] = test: Antimicrobial activity against Candida albicans ATCC 90029 at 10 ug by disk diffusion method; type: functional, organism-based
Candida tropicalis [14] = test: Antimicrobial activity against Candida tropicalis IP 2031 at 10 ug by disk diffusion method; type: functional, organism-based
Escherichia coli [15] = test: Antimicrobial activity against Escherichia coli ATCC 10536 by disk diffusion method; type: functional
Pseudomonas aeruginosa [16] = test: Antimicrobial activity against Pseudomonas aeruginosa ATCC 15442 by disk diffusion method; type: functional, organism-based
Staphylococcus aureus [17] = test: Antimicrobial activity against Staphylococcus aureus ATCC 6538 by disk diffusion method; type: functional
Enterococcus hirae [18] = test: Antimicrobial activity against Enterococcus hirae ATCC 10541 by disk diffusion method; type: functional, organism-based
Candida albicans [19] = test: Antimicrobial activity against Candida albicans ATCC 90029 by disk diffusion method; type: functional, organism-based
Candida tropicalis [20] = test: Antimicrobial activity against Candida tropicalis IP 2031 by disk diffusion method; type: functional
Escherichia coli [21] = test: Antimicrobial activity against Escherichia coli ATCC 10536 at 20 ug by disk diffusion method; type: functional, organism-based
Pseudomonas aeruginosa [22] = test: Antimicrobial activity against Pseudomonas aeruginosa ATCC 15442 at 20 ug by disk diffusion method; type: functional, organism-based
Staphylococcus aureus [23] = test: Antimicrobial activity against Staphylococcus aureus ATCC 6538 at 20 ug by disk diffusion method; type: functional, organism-based
Enterococcus hirae [24] = test: Antimicrobial activity against Enterococcus hirae ATCC 10541 at 20 ug by disk diffusion method; type: functional, organism-based
Candida albicans [25] = test: Antimicrobial activity against Candida albicans ATCC 90029 at 20 ug by disk diffusion method; type: functional; settings: read-out: IZ
Candida tropicalis [26] = test: Antimicrobial activity against Candida tropicalis IP 2031 at 20 ug by disk diffusion method; type: functional; settings: read-out: IZ

SMILES	MIC (Staphylococcus aureus [1]) [mg/L]	MIC (Candida tropicalis [2]) [mg/L]	Activity (Escherichia coli [15])	Activity (Pseudomonas aeruginosa [16])	inhibition zone (IZ) (Staphylococcus aureus [17]) [mm]	Activity (Enterococcus hirae [18])	Activity (Candida albicans [19])	inhibition zone (IZ) (Candida tropicalis [20]) [mm]	also measured
Nc1ccc(S(=O)(=O)c2ccc(N)cc2)cc1 [DAPSONE]	> 100	> 100							
O=C(N[C@H](CO)[C@H](O)c1ccc([N+](=O)[O-])cc1)C(Cl)Cl [CHLORAMPHENICOL]									zone of inhibition at 30 µg/disc (Escherichia coli [3]): 34 mm; Activity (Pseudomonas aeruginosa [4]): inactive; Activity (Staphylococcus aureus [5]): inactive; Activity (Enterococcus hirae [6]): inactive; Activity (Candida albicans [7]): inactive; Activity (Candida tropicalis [8]): inactive
CN[C@@H]1[C@H](O[C@H]2[C@H](O[C@H]3[C@H](O)[C@@H](O)[C@H](N=C(N)N)[C@@H](O)[C@@H]3N=C(N)N)O[C@@H](C)[C@]2(O)C=O)O[C@@H](CO)[C@H](O)[C@H]1O [STREPTOMYCIN]									Activity (Escherichia coli [9]): inactive; Activity (Pseudomonas aeruginosa [10]): inactive; zone of inhibition at 10 µg/disc (Staphylococcus aureus [11]): 27 mm; Activity (Enterococcus hirae [12]): inactive; Activity (Candida albicans [13]): inactive; Activity (Candida tropicalis [14]): inactive
O=C(CS(=O)(=O)c1ccc(Cl)cc1)c1ccc([N+](=O)[O-])cc1	100 (≈ 294 µM)	100 (≈ 294 µM)	inactive	inactive	24	inactive	inactive	19	
Cc1ccc(S(=O)(=O)CC(=O)c2ccc([N+](=O)[O-])cc2)cc1	> 100	> 100		inactive	11	inactive	inactive	22	inhibition zone (IZ) (Escherichia coli [15]): 12 mm
OC(Cn1cncn1)(Cn1cncn1)c1ccc(F)cc1F [FLUCONAZOLE]									Activity (Escherichia coli [21]): inactive; Activity (Pseudomonas aeruginosa [22]): inactive; Activity (Staphylococcus aureus [23]): inactive; Activity (Enterococcus hirae [24]): inactive; zone of inhibition at 20 µg/disc (Candida albicans [25]): 18 mm; zone of inhibition at 20 µg/disc (Candida tropicalis [26]): 21 mm
O=C(c1ccc([N+](=O)[O-])cc1)C(Cc1ccccc1)S(=O)(=O)c1ccccc1 (centres undefined)			inactive	inactive		inactive	inactive		Activity (Staphylococcus aureus [17]): inactive; Activity (Candida tropicalis [20]): inactive
O=C(CS(=O)(=O)c1ccc(F)cc1)c1ccc([N+](=O)[O-])cc1	> 100	> 100	inactive	inactive	25	inactive	inactive	19	
O=C(CS(=O)(=O)c1ccc([N+](=O)[O-])cc1)c1ccc([N+](=O)[O-])cc1	100 (≈ 285 µM)	100 (≈ 285 µM)	inactive	inactive	28	inactive	inactive	12	
O=C(CS(=O)(=O)c1cccc2ccccc12)c1ccc([N+](=O)[O-])cc1	> 100	> 100	inactive	inactive	10	inactive	inactive	12	
O=C(CS(=O)(=O)c1ccc(I)cc1)c1ccc([N+](=O)[O-])cc1	> 100	> 100	inactive	inactive	11	inactive	inactive		Activity (Candida tropicalis [20]): inactive
